From publication PMC6560211, “ApoAI-derived peptide increases glucose tolerance and prevents formation of atherosclerosis in mice” (Diabetologia, 2019)
No end group written: not given here.

Legend:
C2C12 myotubes = test: Glucose uptake in muscle myotubes; type: cell-based, rat; conditions: different concentrations of RG54; three independent experiments
Procedure: C2C12 myoblasts were differentiated to myotubes by switching from growth media to 2% FBS DMEM for 7 days, with the addition of cytosine arabinoside (Sigma, Stockholm, Sweden) from day 3 to 5 to eliminate proliferating cells. Prior to stimulation, cells starved for 2 h in serum-free DMEM were treated as described and glucose uptake measurements were carried out. See ESM Methods for more details.
Fig. 3 RG54 induces skeletal muscle glucose uptake and primes INS-1E cells to increase GSIS. (a) C2C12 skeletal muscle myotubes were incubated in the absence or presence of different concentrations of RG54 or with insulin, followed by glucose uptake measurements. Values are means ± SEM from three independent experiments. *p≤0.05, **p≤0.01, ***p≤0.001 vs control. (b) INS-1E cells were incubated for 2 h in the absence or presence of different concentrations of RG54 in a low-glucose environment (preincubation). Buffer was replaced with one containing low (3.3 mmol/l) or high (20 mmol/l) glucose but no RG54 peptide. Insulin secretion was measured after 1 h glucose challenge. […]
(§1) No statistical methods were used to predetermine sample sizes, but sample sizes are similar to those reported in the field. […] Group allocation was blinded for all mouse work when possible (such as collection of blood or tissues, sample quantification and analysis, and atherosclerosis scoring). […]

Akt and AMPK signalling = test: Tissue signalling by western blotting; type: in vivo, mouse; conditions: soleus muscle, heart muscle and adipose depots in lean mice; 12 mg/kg i.p., 2.5 h; n=4
Procedure: Soleus, heart and fat samples were collected from male C57BL/6NTac mice (Taconic, Ejby, Denmark) after 12 h fasting at 9 weeks of age. The effect of RG54 on Akt and AMPK signalling in vivo was then measured by western blot using the following antibodies (all sourced from Cell Signaling Technology/Bionordika, Stockholm, Sweden): pAKT (#4060, 1:2000), Akt (#4691, 1:1000), pAMPK (#2535, 1:1000), AMPK (#2603, 1:1000) and GAPDH (#D16H11, 1:1000). All antibodies were diluted in Tris-buffered saline (154 mmol/l NaCl) with Tween-20 containing 1% BSA and were validated by the manufacturer. See ESM Methods for more details.
In vitro: glucose uptake measurements
C2C12 […] myoblasts (ATCC #CRL-1772) were grown in DMEM (ATCC) supplemented with 10% FBS (Sigma) and 1% Penicillin, Streptomycin and Amphotericin B (Invitrogen) and maintained at 37°C and 5% CO2. Differentiation to myotubes was achieved by switching from growth media to 2% FBS DMEM for 7 days. […]
as §1
protein concentrations were analysed with Bradford protein assay. […]

Substance: Ac-AEYHAKATEHLSTLSEKAKPALEDLRQGLLPVLESFKVSFLSALEEYTKKLNTQ [RG54]
- glucose uptake (C2C12 myotubes): dose-dependent stimulation
- AMPK and Akt phosphorylation (Akt and AMPK signalling): minor to no changes
